Results: patent publication US4267184A, “Antiinflammatory 4,5-diaryl-2-(substituted-thio)pyrroles and their corresponding sulfoxides and sulfones” (E. I. Du Pont de Nemours and Company, priority 1980, dated 1981)

Columns and labels:
[1] = system: phenylquinone writhing in mice; experiment: Phenylquinone Writhing Test (analgesic activity); format: in vivo, female white mice; conditions: Mus musculus, oral, phenylquinone i.p., effective analgesic dose for 50% of the mice
Source text: A procedure for detecting and comparing the analgesic activity of compounds in this series and standard drugs for which there is a good correlation with human efficacy is the phenylquinone writhing test.
(§1) The test procedures employed for determining antiinflammatory and analgesic activity are described below with test data included in Tables VII and VIII.
The phenylquinone writhing test, modified from Siegmund, et al., Proc. Soc. Exp. Biol. Med. 95, 729 (1957), was employed. A test compound suspended in 1% methylcellulose was given orally to fasted (17-21 hours) female white mice, 5-20 animals per double blind test. Aqueous (0.01% phenyl-p-benzoquinone) phenylquinone was injected intraperitoneally at 24 minutes later using 0.20 ml per mouse. […] The effective analgesic dose for 50% of the mice (ED50) was calculated by the moving average method of Thompson, W. R., Bact. Rev. 11, 115-145 (1947).

[2] = system: Adjuvant-Induced Arthritis in Rats; experiment: Established Adjuvant-Induced Arthritis in Rats; format: in vivo, Charles River Lewis male rats; conditions: for ED50: 168 h, oral gavage daily for 7 days, ED50% decrease from control paw volume
Method: A procedure for detecting and comparing the antiinflammatory activity of compounds in this series and standard drugs for which there is a good correlation with human efficacy is the adjuvant-induced arthritis test in rats.
as §1
Charles River Lewis male rats (130-150 grams) are injected subcutaneously in plantar area of the right hind paw with 0.1 ml of adjuvant (Difco heat-killed, lyophilized Mycobacterium butyricum suspended in mineral oil 5 mg/ml). 20 Non-arthritic controls are injected with mineral oil. The animals are held for 2 weeks to allow development of arthritis. Paw volumes (uninjected, left hind paw) are measured and the adjuvant injected rats are culled and distributed to treatment groups of 10 of equal disease severity. Non-arthritic controls are distributed to 2 groups of 10. The rats are given oral doses of compound or PVA-Acacia (Polyvinyl Alcohol 1%, Gum Acacia, U.S.P. 5%, Methylparaben 0.5%) (10 ml/kg) by gavage on that day and on the 6 following days. One day after the last dose the paw volumes (uninjected, left hind paw) are measured using a Ugo Basile Volume Differential Meter Model 7101. [formula]
Dose-response regression lines of the % decrease are plotted on semi-log paper by visual fit and the ED50% decrease from control paw volume is determined by inspection.

[3] = Rattus norvegicus, Table VII, oral, read-out: percent reduction in paw volume at the indicated dose

SMILES | ED50 ([1]; Table VIII) [mg/kg] | ED50 ([1]; Table VII) [mg/kg] | ED50 ([2]; Rattus norvegicus, Table VII) [mg/kg] | further results
Cc1c(SC(F)(F)F)[nH]c(-c2ccccc2)c1-c1ccccc1 [Example 15] | > 108 |  |  | ED50 ([2]; Rattus norvegicus, Table VIII): 7.5 mg/kg
COc1ccc(-c2[nH]c(SC)cc2-c2ccc(F)cc2)cc1 [Example 45] |  | 78 | 37 | 
Fc1ccc(-c2[nH]c(SC(F)(F)F)cc2-c2ccccc2)cc1 [Example 23] | > 108 |  |  | Adjuvant Arthritis, value in parenthesis (percent reduction in paw volume/dose) ([2]; Table VIII, oral, dose 27 (unit not given)): 27%
COc1ccc(-c2[nH]c(S(C)(=O)=O)cc2-c2ccc(Cl)cc2)cc1 [Example 69] |  | 38 | 13 | 
CCOC(=O)n1c(SC(F)(F)F)cc(-c2ccc(F)cc2)c1-c1ccc(F)cc1 [Example 75, 1-Ethoxycarbonyl-4,5-bis(4-fluorophenyl)-2-(trifluoromethylthio)pyrrole] | > 108 |  |  | ED50 ([2]; Rattus norvegicus, Table VIII): 1.9 mg/kg
COc1ccc(-c2[nH]c(SC(F)(F)F)cc2-c2ccc(F)cc2)cc1 [Example 8] |  | 26 | 30 | 
O=C(c1ccccc1)n1c(SC(F)(F)F)cc(-c2ccc(F)cc2)c1-c1ccc(F)cc1 [Example 76, 1-Benzoyl-4,5-bis(4-fluorophenyl)-2-(trifluoromethylthio)pyrrole] | > 108 |  |  | ED50 ([2]; Rattus norvegicus, Table VIII): 6.6 mg/kg
O=S(=O)(c1cc(-c2ccc(F)cc2)c(-c2ccc(F)cc2)[nH]1)C(F)(F)F [Example 56] |  | > 135 | 1.4 | 
CCOc1ccc(-c2[nH]c([S+]([O-])C(F)(F)F)cc2-c2ccc(F)cc2)cc1 (centres unmarked) [Example 61] |  | > 130 |  | inhibition in vivo at 9 mg/kg ([2]; Rattus norvegicus, Table VII, oral, dose 9 mg/kg, read-out: percent reduction in paw volume at the indicated dose): 14%
Fc1ccc(-c2cc(SC(F)(F)C(F)F)[nH]c2-c2ccc(F)cc2)cc1 [Example 35, 4,5-Bis(4-fluorophenyl)-2-(1,1,2,2-tetrafluoroethylthio)pyrrole] |  | > 108 | 4 | 
CSc1ccc(-c2[nH]c(SC(F)(F)F)cc2-c2ccc(F)cc2)cc1 [Example 26] | > 108 |  |  | ED50 ([2]; Rattus norvegicus, Table VIII): 0.6 mg/kg
COc1ccc(-c2[nH]c(SC)cc2-c2ccc(Cl)cc2)cc1 [Example 46] |  | 63 | 23 | 
CCOc1ccc(-c2[nH]c(S(C)(=O)=O)cc2-c2ccc(F)cc2)cc1 [Example 63] |  | > 108 |  | inhibition in vivo at 25 mg/kg ([2]; Rattus norvegicus, Table VII, oral, dose 25 mg/kg, read-out: percent reduction in paw volume at the indicated dose): 34%
Fc1ccc(-c2cc(SC(F)(F)F)[nH]c2-c2ccccc2)cc1 [Example 10] |  | > 108 |  | inhibition in vivo at 27 mg/kg [2, 3]: 22%
[O-][S+](c1cc(-c2ccc(Cl)cc2)c(-c2ccc(Cl)cc2)[nH]1)C(F)(F)F (centres unmarked) [Example 59] |  | > 135 | 2.7 | 
CS(=O)(=O)c1cc(-c2ccc(Cl)cc2)c(-c2ccccc2)[nH]1 [Example 71] |  | > 108 |  | inhibition in vivo at 27 mg/kg [2, 3]: 23%
